Reference: patent publication US20180111991A1, “MODULATORS OF ACTIVIN AND METHODS FOR MODULATING IMMUNE RESPONSES AND T FOLLICULAR HELPER CELLS” (LA JOLLA INSTITUTE FOR ALLERGY AND IMMUNOLOGY, priority 2014, published 2018)
Entries after “also recorded” stand apart in the source; their conditions may differ.

What was measured:
[1] = system: human naïve CD4 T cells; test: Screening of secretomics recombinant proteins for Tfh marker induction; assay type: cell-based; conditions: secretomics protein screen, anti-CD3/CD28 beads, 5 days, automated FACS
Procedure: FIG. 1A-D: Inhibin beta A (INHBA) emerged from the screen as potent regulator of human Tfh differentiation. (A) Schematic of primary screen. Purified human naïve CD4 T cells from a leukapheresis donor were stimulated by anti-CD3/CD28 beads on 384 well plates on day 0. The GNF secretomics recombinant proteins were added at the beginning of the stimulation. Each secretomics protein was tested in duplicate. After 5 days of in vitro culture, cells were evaluated by automated FACS analysis for the expression of Tfh signature markers, including CXCR5 and PD-1. (B) Primary screen results. Relative enrichment of PD-1^+CXCR5^+ cell induction is reported as Z score for each recombinant protein. INHBA gene product is shown in red. (C) CXCR5 and PD-1 expression from repeat experiment in which INHBA gene product was tested again for its capacity to induce Tfh-like differentiation. (D) Confocal microscopy of INHBA expression in human tonsils. Tonsil sections were stained with anti-INHBA (red) anti-BCL6 (blue) and anti-CD3 (green) Abs. An overlay from one donor representative of six is shown on the left panel. […]
Naïve CD4^+ T cells were isolated from leukapheresis-derived mononuclear cells via CliniMACS negative selection (Miltenyi Biotec). […] Induction of CXCR5 and PD-1 was assessed after 5 days of in vitro culture using automated FACS acquisition via HTS on LSR Fortessa (BD Biosciences). For each 384 well plate, mean and standard deviation of PD-1^+CXCR5^+ cell frequency induced by each individual recombinant proteins was determined and used to calculate the Z score. Z scores of replicate plates were analyzed independently.
To discover novel regulators of human Tfh cell differentiation, we performed an unbiased high throughput screen of a human extracellular proteome library consisting of over 2000 human proteins predicted or known to be cytokines, chemokines, morphogens, costimulatory receptors, or single pass transmembrane molecules^19. […] Following 5 days, expression of the Tfh signature markers CXCR5 and PD-1 were measured on the cells by flow cytometry, in an automated fashion. […]

[2] = system: human naïve CD4 T cells; test: Intracellular cytokine staining after PMA/Ionomycin restimulation; assay type: cell-based
Procedure: For surface staining, primary-staining panels used for phenotypic analysis or for cell sorting known in the art were used. For the intranuclear staining: cells were treated with the FoxP3 Fixation/Permeabilization kit (eBioscience) and stained in Permeabilization buffer (eBioscience). For cytokine staining: day 3 or day 5 in vitro differentiated cells (specified in the main text or in figure legends) cells were stimulated for 5 hours at 37° C. with Phorbol 12-myristate 13-acetate (PMA, 25 ng/ml) and Ionomycin (1 μg/ml) in the presence of Brefeldin A (5 μg/ml). Cells were fixed with PBS 2% FBS, 1% PFA and permeabilized with PBS 2% FBS, 0.5% Saponin (from quillaja bark, Sigma-Aldrich). Samples were analyzed on a LSR Fortessa Cell Analyzer (BD, Bioscience). Flow cytometry data were analyzed with FlowJo (Tree Star). For cell sorting, cells were sorted using sorted using a FACS Aria (BD, Bioscience).

[3] = system: mouse naïve CD4 T cells; test: Mouse CD4 T cell differentiation; assay type: cell-based, mouse (BALB/c, C57BL/6)
Procedure: Naïve CD4^+ T cells were isolated from spleen using the Naïve CD4^+ T cell isolation kit (Stem Cell). Purity was 92% or higher. Naïve CD4^+ T cells (2×10^5 cells/well) were cultured for 3 days with recombinant human/mouse/rat activin A (50 ng/ml, R&D Systems), recombinant mouse IL-12 (10 ng/ml, Peprotech), and/or recombinant mouse IL-6 (20 ng/ml, Peprotech) in the presence of plate-bound anti-mouse-CD3 mAb (8 μg/ml, clone 145-2C11, BioXcell) and anti-mouse-CD28 (8 μg/ml, clone 37.51, BioXcell), in RPMI medium, supplemented with 10% fetal bovine serum, GlutaMAX, penicillin/streptomycin, and 2.5 μM β-mercaptoethanol. After 3 days, cells were removed from stimuli and further cultured for 2 additional days in IL-2 (50 U/mL,) and the same cytokine combination used at day 0. Phenotype was quantified by FACS at day 5 of the in vitro culture.

| Substance | induction of CXCR5 and PD-1 expression (PD-1+CXCR5+ cells) [1] | IL-21 production ([2]; cells cultured with activin A+IL-12, PMA/Ionomycin re-stimulation) | TNFα and LTα protein expression ([2]; day 3 cells, PMA/Ionomycin restimulation) | in vitro mouse Tfh differentiation ([3]; activin A in the presence of IL-6) | PD-1 and CXCR5 expression ([3]; mouse CD4 T cells, activin A alone or with IL-12, C57BL/6 and BALB/c) |
| --- | --- | --- | --- | --- | --- |
| TGFβ | regulator T cell differentiation |  |  |  |  |
| activin A: commercial recombinant cytokine, homodimer of the INHBA gene product (inhibin beta A) | potent regulator of the human Tfh gene program; also recorded: top hit in the screen | retained full IL-21 production potential | superior ability of CD4 T cells cultured with activin A to express TNFα and LTα proteins | did not result in activin A mediated promotion of in vitro mouse Tfh differentiation | did not have any relevant effect on PD-1 and CXCR5 expression by mouse CD4 T cells; also recorded: No relevant CXCR5 and PD-1 induction |
